Measurements taken from patent publication US20100227841A1, “Patient populations and treatment methods” (Harbor BioSciencs, Inc., priority 2008, published 2010).

Experiments:
[1] = test system: patients having type 2 diabetes; test: Phase II double-blinded placebo controlled 12-week trial in type 2 diabetes patients on metformin; type: in vivo, human; details: for Fasting C-peptide Change from baseline / Fasting Glucose Change from baseline / HbA1c Change from baseline / LDL Cholesterol change from baseline / Total Cholesterol change from baseline / Weight change from baseline / HOMA2% insulin sensitivity change from baseline / HOMA2% β cell function change from baseline / HOMA2 Insulin resistance change from baseline: 5 mg twice per day + metformin; for HOMA2% insulin sensitivity change from baseline / HOMA2% β cell function change from baseline / HOMA2 Insulin resistance change from baseline: calculated using C-peptide
Protocol: Patients having type 2 diabetes were evaluated for their baseline BMI and levels of MCP1, insulin and C peptide. The effect of treatment with 17α-ethynylandrost-5-ene-3β,7β,17β-triol (5 mg administered orally twice per day for 84 days) on total cholesterol, LDL cholesterol, hemoglobin A1c (HbA1c) plus metformin (500-2250 mg/day, which was administered in one or two doses per day for 84 days), weight, and other biological responses is shown in the tables below. The effect of treatment in all treated patients was compared with the effect of the same treatment in the responder population, characterized as having a BMI>27.99 (overweight or obese), insulin resistant (C-peptide >1.99 ng/mL or essentially normal insulin >3.99 μU/mL to about 29 μU/mL with hyperglycemia), and having an elevated serum MCP1>399.99 pg/mL, indicating a state of systemic inflammation. The responder patients were a subset of all patients were treated.
The Phase II, double-blinded placebo controlled 12-week dosing trial of example 4 enrolled 96 subjects with a hemoglobin A1c (HbA1c) level in excess of 7.5 percent and were being treated with a stable metformin dose as described above. The primary objectives of this trial were to evaluate the safety and tolerance of 17α-ethynylandrost-5-ene-3β,7β,17β-triol, 10 mg per day (5 mg twice daily), compared to placebo from baseline to week 12 and to evaluate the change in HbA1c from baseline to week 12 in the 17α-ethynylandrost-5-ene-3β,7β,17β-triol treated group when compared to the placebo group.
A retrospective analysis of data was performed on the subpopulation of patients that represented an obese, insulin-resistant, diabetic population. This analysis included patients who met the following criteria at baseline: BMI greater than or equal to 28; fasting plasma insulin levels greater than or equal to 4 μU/mL; fasting plasma C-peptide levels greater than or equal to 2 ng/mL; and serum monocyte chemoattractant protein-1 (MCP1) levels greater than or equal to 400 pg/mL. This phenotype represented 35% of all 89 patients with values reported for these parameters at baseline. Twenty-two individuals with this phenotype completed the 84 days of dosing. […] These changes in secondary indicators of activity were consistent with the observed decreases in HbA1c and glucose in this diabetic subpopulation.

CCR2 / MCP1 = test: Effects of treatment on CCR2 expression and circulating MCP1; type: in vivo
Source text: The treatment methods described herein may involve treating patient subsets having elevated MCP1 (monocyte chemoattractant protein 1, or sometimes referred to as CCL2, which is CC chemokine receptor 2 ligand). CC chemokine receptor 2 (CCR2) is the receptor for MCP1. […] These effects are consistent with biological responses that correspond to reduced progression and/or at least partial reversal of cardiovascular plaque accumulation. That provides a basis for treating, e.g., slowing the progression, of arteriosclerosis and atherosclerosis. Such treatments would be effective in patients having a dyslipidemia such as hypercholesterolemia and/or hypertriglyceridemia with or without also having an arteriosclerosis condition such as atherosclerosis. Such patients will preferably have BMI and fasting plasma insulin levels as described in the embodiments described below (e.g., in embodiment 1, 9, 10, 17 or 19), examples or original claims, e.g., a BMI of ≧28 and insulin of ≧4 μU/mL. Any of these patients may also have hyperglycemia or overt diabetes. Patients with elevated MCP1 are also treatable for preventing or reducing the severity of cardiovascular disease, including myocardial infarction.

[2] = test system: RAW264.7 macrophage cells; test: Macrophage chemotaxis assay with 3T3-L1 adipocyte conditioned medium; type: cell-based; details: p<0.05
Protocol: The macrophage chemotaxis assay was conducted with differentiated 3T3-L1 adipocytes (day +11 post differentiation) incubated for 24 hours with compounds (10 ng/mL TNFα with or without 100 nM 17α-ethynylandrost-5-ene-3β,7β,17β-triol) or vehicle in DMEM with 0.2% FFA- and endotoxin-free BSA. Conditioned medium (CM) was collected and kept frozen in single-use aliquots. For the chemotaxis assay, 600 μl/well of adipocyte CM was aliquoted into 24-well tissue culture plates. 2×10^5 RAW264.7 macrophage cells resuspended in DMEM containing 0.2% BSA were plated in the upper transwell chamber ([…], 24-transwell format; Corning, Lowell, Mass.). After 3 hours of migration, the RAW264.7 cells were fixed in formalin and stained with DAPI. Cells in the upper chamber that had not migrated were removed. Cells found on the filter facing the lower chamber were counted as cells having performed chemotaxis and quantified with the Simple PCI imaging software (Compix Inc., Cranberry Township, Pa.).

[3] = retrospective subpopulation, 84 days, compared to placebo, non-significant
[4] = TNFα-treated adipocyte CM, adipocytes pretreated

In the case of `C#C[C@]1(O)CC[C@H]2[C@@H]3[C@@H](O)C=C4C[C@@H](O)CC[C@]4(C)[C@H]3CC[C@@]21C` [17α-ethynylandrost-5-ene-3β,7β,17β-triol], the “Fasting C-peptide Change from baseline” value ([1]; All patients, day 29) is reported as -0.2 ng/mL, the “Fasting Glucose Change from baseline” value ([1]; All patients, day 29) is reported as -7.5 mg/dL and the “HbA1c Change from baseline” value ([1]; All patients, day 29) is reported as 0 % Hb. The “LDL Cholesterol change from baseline” value ([1]; All patients, day 29) was 0.5 mg/dL, the “Total Cholesterol change from baseline” value ([1]; All patients, day 29) was -0.5 mg/dL and the “Weight change from baseline” value ([1]; All patients, day 29) was -0.4136 kg. For the same compound, the “Fasting C-peptide Change from baseline” value ([1]; All patients, day 57) was -0.2 ng/mL, the “Fasting Glucose Change from baseline” value ([1]; All patients, day 57) was 0 mg/dL and the “HbA1c Change from baseline” value ([1]; All patients, day 57) was 0.1 % Hb. The “LDL Cholesterol change from baseline” value ([1]; All patients, day 57) was -2 mg/dL, the “Total Cholesterol change from baseline” value ([1]; All patients, day 57) was -5.5 mg/dL and the “Weight change from baseline” value ([1]; All patients, day 57) was -0.4546 kg. The “Fasting C-peptide Change from baseline” value ([1]; All patients, day 84) was -0.05 ng/mL, the “Fasting Glucose Change from baseline” value ([1]; All patients, day 84) was -4.25 mg/dL and the “HbA1c Change from baseline” value ([1]; All patients, day 84) was 0.15 % Hb. For the same compound, the “LDL Cholesterol change from baseline” value ([1]; All patients, day 84) was 4.5 mg/dL, the “Total Cholesterol change from baseline” value ([1]; All patients, day 84) was 3 mg/dL and the “Weight change from baseline” value ([1]; All patients, day 84) was -0.03864 kg. For the same compound, the “HOMA2% insulin sensitivity change from baseline” value ([1]; All patients, day 29) was 4.2 % S, the “HOMA2% β cell function change from baseline” value (from here on “HOMA2% β cell function change”) ([1]; All patients, day 29) was 0.8 % b and the “HOMA2 Insulin resistance change from baseline” value (“HOMA2 Insulin resistance change” for short) ([1]; All patients, day 29) was −0.1453 IR. The “HOMA2% insulin sensitivity change from baseline” value ([1]; All patients, day 57) was 1.75 % S, the “HOMA2% β cell function change” value ([1]; All patients, day 57) was −2.15 % b and the “HOMA2 Insulin resistance change” value ([1]; All patients, day 57) was −0.0518 IR. For the same compound, the “HOMA2% insulin sensitivity change from baseline” value ([1]; All patients, day 84) was −1.45 % S, the “HOMA2% β cell function change” value ([1]; All patients, day 84) was 5.6 % b and the “HOMA2 Insulin resistance change” value ([1]; All patients, day 84) was 0.02309 IR. For the same compound, the “HbA1c Change from baseline” value ([1]; Responder patients (BMI>27.99, insulin resistant, MCP1>399.99 pg/mL), day 29) was −0.15 % Hb, the “Fasting C-peptide Change from baseline” value ([1]; Responder patients, day 29) was -0.2 ng/mL and the “Fasting Glucose Change from baseline” value ([1]; Responder patients, day 29) was -17.5 mg/dL. For the same compound, the “LDL Cholesterol change from baseline” value ([1]; Responder patients, day 29) was -8.5 mg/dL, the “Total Cholesterol change from baseline” value ([1]; Responder patients, day 29) was -0.5 mg/dL and the “Weight change from baseline” value ([1]; Responder patients, day 29) was -0.3727 kg. For the same compound, the “Fasting C-peptide Change from baseline” value ([1]; Responder patients, day 57) was 0 ng/mL, the “Fasting Glucose Change from baseline” value ([1]; Responder patients, day 57) was -7 mg/dL and the “HbA1c Change from baseline” value ([1]; Responder patients, day 57) was −0.1 % Hb. For the same compound, the “LDL Cholesterol change from baseline” value ([1]; Responder patients, day 57) was -11.5 mg/dL, the “Total Cholesterol change from baseline” value ([1]; Responder patients, day 57) was -18.5 mg/dL and the “Weight change from baseline” value ([1]; Responder patients, day 57) was -0.925 kg. The “Fasting C-peptide Change from baseline” value ([1]; Responder patients, day 84) was 0.25 ng/mL, the “Fasting Glucose Change from baseline” value ([1]; Responder patients, day 84) was -13 mg/dL and the “HbA1c Change from baseline” value ([1]; Responder patients, day 84) was −0.425 % Hb. The “LDL Cholesterol change from baseline” value ([1]; Responder patients, day 84) was -7.5 mg/dL, the “Total Cholesterol change from baseline” value ([1]; Responder patients, day 84) was -14.5 mg/dL and the “Weight change from baseline” value ([1]; Responder patients, day 84) was -1.33 kg. For the same compound, the “HOMA2% insulin sensitivity change from baseline” value ([1]; Responder patients, day 29) was 3.9 % S, the “HOMA2% β cell function change” value ([1]; Responder patients, day 29) was 2.1 % b and the “HOMA2 Insulin resistance change” value ([1]; Responder patients, day 29) was −0.3061 IR. The “HOMA2% insulin sensitivity change from baseline” value ([1]; Responder patients, day 57) was 1 % S, the “HOMA2% β cell function change” value ([1]; Responder patients, day 57) was 5.3 % b and the “HOMA2 Insulin resistance change” value ([1]; Responder patients, day 57) was −0.04016 IR. The “HOMA2% insulin sensitivity change from baseline” value ([1]; Responder patients, day 84) was −4.4 % S, the “HOMA2% β cell function change” value ([1]; Responder patients, day 84) was 16.3 % b and the “HOMA2 Insulin resistance change” value ([1]; Responder patients, day 84) was 0.2265 IR. The “HbA1c, treatment vs placebo” value ([1]; entire 72 patient population that completed dosing on day 84) was “no statistical difference”, the “decrease in HbA1c” value ([1]; retrospective subpopulation (BMI>=28, insulin>=4 μU/mL, C-peptide>=2 ng/mL, MCP1>=400 pg/mL), 84 days, compared to placebo, p=0.06) was −0.53% and the “decrease in HOMA2 insulin resistance” value [1, 3] was −0.65 IR. For the same compound, the “decrease in fasting plasma C-peptide” value [1, 3] was -0.43 ng/mL, the “decrease in fasting plasma insulin” value [1, 3] was −0.48 μU/mL and the decrease in fructosamine [1, 3] was -25.75 µmol/L. The “increase in HOMA2 beta cell function” value [1, 3] was 17.95 % B, the “increase in HOMA2 insulin sensitivity” value [1, 3] was 11.3 % S and the “decrease in fasting plasma glucose” value ([1]; retrospective subpopulation, 84 days, compared to placebo, p=0.09) was -28.75 mg/dL. For the same compound, the “sensitivity analysis using last observation carried forward” value ([1]; subpopulation individuals who completed at least 29 days of dosing) was “showed improvement”, the “expression levels of CCR2” value (CCR2 / MCP1; in vivo) was “decrease” and the MCP1 in circulation (CCR2 / MCP1; typically protein levels in serum, e.g. ELISA) was “trend to decrease”. The “macrophage secretion of CCL5/RANTES” value [2, 4] was “significantly decreased”, the “macrophage secretion of MCP-1/CCL2” value [2, 4] was “significantly decreased” and the “reduction of macrophage migration stimulated by CM from TNFα-treated adipocytes” value ([2]; adipocytes pretreated with 100 nM) was about 30%.
